Measured values: paper PMC4171606, “A novel copper(I) complex induces ER-stress-mediated apoptosis and sensitizes B-acute lymphoblastic leukemia cells to chemotherapeutic agents” (Oncotarget, 2014)
Where two headings read alike, the source gives them in different places.

Experiments:
RS4;11 and SEM cells [1] = experiment: MTT viability with CP in presence of pan-caspase inhibitor, 48 h; type: cell-based, human; conditions: z-VAD.fmk 100 μM with CP 2.5 μM and 5 μM
Description: FIGURE 2 CP induces caspase-dependent apoptosis without mitochondria involvement (A) Assessment of mitochondrial membrane potential (ΔΨmt) after treatment of RS4;11 and SEM cells with CP (2.5 μM) for the indicated times. Cells were stained with the fluorescent probe JC-1. Data are represented as mean ± S.E.M. of three independent experiments. (B) Flow cytometric analysis of RS4;11 and SEM cells treated with CP (2.5 μM) for 24 h showing cytochrome c labeled with a monoclonal antibody conjugated to FITC. Representative image of three experiments with similar results. (C) Cells were incubated with CP 2.5 μM and 5 μM in the presence or absence of the pan-caspase inhibitor z-VAD.fmk (100 μM). Cell viability was determined after 48 h by MTT assay. Data are represented as mean ± S.E.M. of three independent experiments performed in triplicate. *p<0.01 vs CP alone. (D) Western blot analysis of Bcl-2, cleaved caspase-12, caspase-9, cleaved caspase-7, caspase-3 and PARP after treatment of SEM and RS4;11 cells with CP (2.5 μM) for the indicated times. To confirm equal protein loading, each membrane was stripped and reprobed with anti-β-actin antibody.
We therefore evaluated whether the inhibition of caspases with the pan-caspase inhibitor z-VAD.fmk would prevent cell death.

RS4;11 cells = experiment: Combined drugs analysis, MTT 48 h, Chou and Talalay; type: cell-based; conditions: Homo sapiens
Description: (§1) SEM and RS4;11 cell lines were exposed to dexamethasone (Dex), daunorubicine (Dauno), cytarabine (Ara-C) and vincristine (Vcr) in the presence or absence of CP, at fixed combination ratios.
(§2) To test potential synergistic, additive, or antagonistic effects of the combination of CP and drugs commonly used in B-ALL treatment, we performed MTT experiments as follows.
(§3) SEM, and RS4;11 cells were treated for 48 hours with one of the most used chemotherapeutic agents: cytarabine (Aractyn, Pfizer), daunorubicin (Pfizer), vincristine (Pfizer), or dexamethasone (Sigma-Aldrich). CP was also added to each drug solution, at fixed combination ratios. Cell viability was determined after 48 hours of treatment by MTT test as described above. To determine the synergistic, additive, or antagonistic effects of the drug combinations, we used CalcuSyn software (version 2.0, Biosoft, Cambridge, United Kingdom) based on the method of the combination index (CI) described by Chou and Talalay. Synergy, additivity and antagonism were defined by a CI<1, CI=1, or CI>1, respectively.

SEM cells = experiment: as above; type: cell-based; conditions: Homo sapiens
Description: as §1, §2, §3

RS4;11 and SEM cells [2] = experiment: Annexin-V/PI assay with CP in presence of cycloheximide, 12 h; type: cell-based, human; conditions: CHX 2 μg/ml with CP 2.5 μM
Description: To investigate if proteasome inhibition and ER stress could be responsible for CP-induced cell death, we assayed apoptosis and ER stress markers in the presence of cycloheximide (CHX), an inhibitor of protein synthesis that antagonizes ER-stress agents. The inhibition of protein synthesis reduced the accumulation of unfolded proteins in the ER and therefore ER-stress induced apoptosis.
Furthermore, CHX induced a remarkable reduction of GRP78 and CHOP expression, induced after 12 h of treatment with CP, when CHOP and GRP78 were highly expressed (Figure 5, panel C).
FIGURE 5 CP induces ER stress mediated apoptosis SEM (A) and RS4;11 (B) cells were incubated with CP (2.5 μM) in the presence or absence of cycloheximide (CHX) for 12 h, at the concentration of 2 μg/ml. Cells were analyzed by flow cytometry after double staining with Annexin-V-FITC and PI. Data are represented as mean ± S.E.M of three independent experiments. *p<0.05. (B) Western blot analysis showing the expression of GRP78 and CHOP after treatment of RS4;11 and SEM cells with CP (2.5 μM) for 12 h in the presence or absence of CHX (2 μg/ml).

[3] = test system: human leukemia cell lines; experiment: MTT growth inhibition, panel of twelve leukemia cell lines, 72 h; type: cell-based; conditions: all cell lines, same experimental conditions as CP, data not shown
Description: [Cu(thp)4][PF6] (CP) was evaluated for its growth inhibition activity on a panel of twelve different human leukemia cell lines (five B-acute lymphoblastic leukemia, three T-acute lymphoblastic leukemia, three acute myeloid leukemia and one chronic myeloid leukemia). Cells were treated for 72 h with CP and cell viability was evaluated by MTT test. […] This abnormal high expression of proteasomal proteins and mRNA seem to be correlated to the hyperproliferation of these cancer cells and to the sensitivity towards proteasome inhibitors.
The human leukemia cell lines RS 4;11, SEM, REH, RCH-ACV, MHH-CALL2, Jurkat, CCRF-CEM, HSB2, HL-60, K562, THP-1, MV4;11 were purchased from the American Type Culture Collection. Cells were cultured in RPMI 1640 (Life Technologies, Italy) supplemented with 10% fetal bovine serum (FBS), glutamine (2 mM; Life Technologies, Italy), penicillin (100 U/ml; Life Technologies, Italy) and streptomycin (100 μg/ml; Life Technologies, Italy), and maintained at 37°C in a humidified atmosphere with 5% CO2. The cytotoxic activity of CP was determined using a standard 3-[4,5-dimethylthiazol-2-yl]-2,5-diphenyltetrazodium bromide (MTT) based colorimetric assay (Sigma-Aldrich, Italy). Briefly, cells were seeded at a density of 2×10^4 cells/well in 96-well microtiter plates. After 24 h, cells were exposed to the test compound. After different times, cell survival was determined by the addition of an MTT solution as previously described.

[4] = RS4;11, 48 h, MTT, drug alone or with CP at fixed molar ratio, mean ± SE, read-out: GI50
[5] = SEM, MTT, drug alone or with CP at fixed molar ratio, mean ± SE, read-out: GI50

| GI50 (RS4;11 cells; [4]) [nM] | Structure (SMILES) | GI50 (SEM cells; [5]) [nM] | further results |
| --- | --- | --- | --- |
| – | CC(C)[C@H](NC(=O)OCc1ccccc1)C(=O)N[C@@H](C)C(=O)NC(CC(=O)O)C(=O)CF (mixture of isomers) [z-VAD.fmk, N-[(benzyloxy)carbonyl]-L-Val-Ala-DL-Asp-fluoromethylketone] | – | cell viability of CP-treated cells (RS4;11 and SEM cells [1]): significantly increased cell viability |
| 21 ± 7.1 | Nc1ccn([C@@H]2O[C@H](CO)[C@@H](O)[C@@H]2O)c(=O)n1 [AraC, cytarabine] | 22.3 ± 1.8 | – |
| – | C[C@@H]1C[C@@H]([C@H](O)CC2CC(=O)NC(=O)C2)C(=O)[C@@H](C)C1 [CHX, cycloheximide] | – | protection from CP induced cell death (RS4;11 and SEM cells [2]): significant protection from CP induced cell death |
| – | [Cl][Cu][Cl] [CuCl2] | – | concentration giving only a slight reduction of cell viability [3]: > 250 µM |
| – | [Cl][Cu] [CuCl] | – | concentration giving only a slight reduction of cell viability [3]: > 250 µM |
| – | COc1cccc2c1C(=O)c1c(O)c3c(c(O)c1C2=O)C[C@@](O)(C(C)=O)C[C@@H]3O[C@H]1C[C@H](N)[C@H](O)[C@H](C)O1 [Dauno, daunorubicin] | – | GI50 (RS4;11 cells; RS4-11, 48 h): 19.2 ± 1.9 nM; GI50 (SEM cells): 96 ± 14.1 nM |
| 0.12 ± 0.025 | C[C@@H]1C[C@H]2[C@@H]3CCC4=CC(=O)C=C[C@]4(C)[C@@]3(F)[C@@H](O)C[C@]2(C)[C@@]1(O)C(=O)CO [Dex, dexamethasone] | 643 ± 44.2 | – |
| 0.071 ± 0.042 | CC[C@]1(O)C[C@H]2CN(CCc3c([nH]c4ccccc34)[C@@](C(=O)OC)(c3cc4c(cc3OC)N(C=O)[C@H]3[C@@](O)(C(=O)OC)[C@H](OC(C)=O)[C@]5(CC)C=CCN6CC[C@]43[C@@H]65)C2)C1 [Vcr, vincristine] | 13.1 ± 1.2 | – |
